The values below come from US9957264B2 (Merck Sharp & Dohme Corp., priority 2013, dated 2018).

Assay [1] has as its target JAK2 (recombinant purified GST-tagged catalytic domain) (Homo sapiens (Human), UniProt O60674). Nature of the assay: Jak Biochemical HTRF Assay (JAK2). To be noted: [ATP] 8.5 μM.
Assay [2] deals with JAK1 (recombinant purified GST-tagged catalytic domain) (Homo sapiens (Human), UniProt P23458). Nature of the assay: Jak Biochemical HTRF Assay (JAK1). Particulars: [ATP] 31.8 μM. The essentials: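 Read-out is the 665/615 nm time-resolved FRET ratio from Eu-pY20 antibody and streptavidin-Dylight 650 bound to phosphorylated biotin-peptide. Reactions ran 120 min at room temperature after ATP start. Inhibition normalized to untreated controls gave IC50 via 4-parameter fit.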

Structures are written as SMILES.

Sequence of JAK1 (recombinant purified GST-tagged catalytic domain) (P23458 875-1153): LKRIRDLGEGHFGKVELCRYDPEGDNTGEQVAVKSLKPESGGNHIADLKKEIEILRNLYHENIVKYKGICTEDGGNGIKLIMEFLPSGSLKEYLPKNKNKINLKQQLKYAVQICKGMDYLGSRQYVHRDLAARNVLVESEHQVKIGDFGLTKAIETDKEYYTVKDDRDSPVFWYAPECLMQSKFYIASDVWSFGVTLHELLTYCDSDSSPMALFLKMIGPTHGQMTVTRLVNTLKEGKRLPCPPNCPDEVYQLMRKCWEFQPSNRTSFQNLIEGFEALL
Sequence of JAK2 (recombinant purified GST-tagged catalytic domain) (O60674 849-1124): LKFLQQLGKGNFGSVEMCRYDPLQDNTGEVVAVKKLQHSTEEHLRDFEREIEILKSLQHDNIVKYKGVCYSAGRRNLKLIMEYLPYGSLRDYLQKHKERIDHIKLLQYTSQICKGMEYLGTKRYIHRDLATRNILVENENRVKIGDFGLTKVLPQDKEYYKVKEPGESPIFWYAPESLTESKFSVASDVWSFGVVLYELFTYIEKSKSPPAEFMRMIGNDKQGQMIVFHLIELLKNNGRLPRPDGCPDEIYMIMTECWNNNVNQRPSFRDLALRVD

As to `CC(C)(C)OC(=O)N1CC[C@](CC#N)(n2nc(Nc3ccc(S(C)(=O)=O)cc3)c3c(=O)[nH]ccc32)[C@@H](F)C1` (single isomer, unassigned) [Example 5-14, tert-butyl (3S,4R or 3R,4S)-4-(cyanomethyl)-3-fluoro-4-(3-{[4-(methylsulfonyl)phenyl]amino}-4-oxo-4,5-dihydro-1H-pyrazolo[4,3-c]pyridin-1-yl)piperidine-1-carboxylate], the figures for the IC50 in assay [1] and in assay [2] were 17.7 nM and 1.07 nM, respectively.
As to `N#CC[C@]1(n2nc(Nc3ccc(S(=O)(=O)C(F)F)cc3)c3c(=O)[nH]ccc32)CC[C@@H](N2CC(F)C2)CC1` [Example 18-27, Cis 2-(1-(3-((4-((difluoromethyl)sulfonyl)phenyl)amino)-4-oxo-4,5-dihydro-1H-pyrazolo[4,3-c]pyridin-1-yl)-4-(3-fluoroazetidin-1-yl)cyclohexyl)acetonitrile], the IC50 in assay [1] was 9.07 nM; in assay [2], 2.23 nM.
For `CS(=O)(=O)c1ccc(Nc2nn(C3(CC#N)CCN(c4ccc(Br)cn4)CC3)c3cc[nH]c(=O)c23)cc1` [Example 15-8, 2-(1-(5-bromopyridin-2-yl)-4-(3-((4-(methylsulfonyl)phenyl)amino)-4-oxo-4,5-dihydro-1H-pyrazolo[4,3-c]pyridin-1-yl)piperidin-4-yl)acetonitrile] the same measures were 0.41 nM and 0.09 nM.
`CN(C)S(=O)(=O)c1ccc(Nc2nn(C3(CC#N)CCN(Cc4ccc(-c5ccon5)cc4)CC3)c3cc[nH]c(=O)c23)cc1` [Example 8-13, 4-({1-[4-(cyanomethyl)-1-(4-isoxazol-3-ylbenzyl)piperidin-4-yl]-4-oxo-4,5-dihydro-1H-pyrazolo[4,3-c]pyridin-3-yl}amino)-N,N-dimethylbenzenesulfonamide]: the IC50 in assay [1] came to 0.75 nM; in assay [2], 0.31 nM.
For `C[C@H]1CN(c2ccc3cc(Nc4nn([C@]5(CC#N)CC[C@@H](C(=O)OC(C)(C)C)OC5)c5cc[nH]c(=O)c45)ccc3n2)CCO1` [Example 5-228, (2S,5S)-tert-butyl 5-(cyanomethyl)-5-(3-((2-((S)-2-methylmorpholino)quinolin-6-yl)amino)-4-oxo-4,5-dihydro-1H-pyrazolo[4,3-c]pyridin-1-yl)tetrahydro-2H-pyran-2-carboxylate] the same measures were 1.06 nM and 0.25 nM.
For `CN(C)S(=O)(=O)c1ccc(Nc2nn(C3(CC#N)CCN(C(=O)C4CC4)CC3)c3cc[nH]c(=O)c23)cc1` [Example 9-6, 4-({1-[4-(cyanomethyl)-1-(cyclopropylcarbonyl)piperidin-4-yl]-4-oxo-4,5-dihydro-1H-pyrazolo[4,3-c]pyridin-3-yl}amino)-N,N-dimethylbenzenesulfonamide] the same measures were 0.29 nM and 0.08 nM.
The matching figures for `CCN(C)S(=O)(=O)c1ccc(Nc2nn([C@]3(CC#N)CC[C@@H](C(=O)OC(C)(C)C)OC3)c3cc[nH]c(=O)c23)cc1` [Example 5-92, (2S,5S)-tert-butyl 5-(cyanomethyl)-5-(3-((4-(N-ethyl-N-methylsulfamoyl)phenyl)amino)-4-oxo-4,5-dihydro-1H-pyrazolo[4,3-c]pyridin-1-yl)tetrahydro-2H-pyran-2-carboxylate]: 0.13 nM and 0.09 nM.
`N#CCC1(n2nc(Nc3ccc(C(F)(F)F)cc3)c3c(=O)[nH]ccc32)CCC2(CC1)OCCO2` [Example 5-83, 2-(8-(4-oxo-3-((4-(trifluoromethyl)phenyl)amino)-4,5-dihydro-1H-pyrazolo[4,3-c]pyridin-1-yl)-1,4-dioxaspiro[4.5]decan-8-yl)acetonitrile]: the results for the IC50 in assay [1] and in assay [2] were 21.6 nM and 1.97 nM, respectively.
Regarding `CC(C)(C)OC(=O)[C@@H]1CC[C@@](CC#N)(n2nc(Nc3ccc4nc(C(N)=O)ccc4c3)c3c(=O)[nH]ccc32)CO1` [Example 5-223, (2S,5S)-tert-butyl 5-(3-((2-carbamoylquinolin-6-yl)amino)-4-oxo-4,5-dihydro-1H-pyrazolo[4,3-c]pyridin-1-yl)-5-(cyanomethyl)tetrahydro-2H-pyran-2-carboxylate], the IC50 in assay [1] worked out at 0.82 nM; in assay [2], 0.07 nM.
The matching figures for `CC(C)(C)OC(=O)N1CCC(CC#N)(n2nc(Nc3ccc4c(c3)CN(CC3CC3)S4(=O)=O)c3c(=O)[nH]ccc32)CC1` [Example 5-68, tert-butyl 4-(cyanomethyl)-4-(3-{[2-(cyclopropylmethyl)-1,1-dioxo-2,3-dihydro-1,2-benzothiazol-5-yl]amino}-4-oxo-1H,4H,5H-pyrazolo[4,3-c]pyridin-1-yl)piperidine-1-carboxylate]: 0.33 nM and 0.25 nM.
The matching figures for `N#CCC1(n2nc(Nc3ccc(C(N)C(F)(F)F)cc3)c3c(=O)[nH]ccc32)CCCC1` (single isomer, unassigned) [Example 5-88, (R or S)-2-(1-(3-((4-(1-amino-2,2,2-trifluoroethyl)phenyl)amino)-4-oxo-4,5-dihydro-1H-pyrazolo[4,3-c]pyridin-1-yl)cyclopentyl)acetonitrile]: 1.56 nM and 0.46 nM.
The matching figures for `Cc1cc(C)n(-c2ccc(Nc3nn([C@]4(CC#N)CC[C@@H](C(=O)OC(C)(C)C)OC4)c4cc[nH]c(=O)c34)cc2)n1` [Example 5-218, (2S,5S)-tert-butyl 5-(cyanomethyl)-5-(3-((4-(3,5-dimethyl-1H-pyrazol-1-yl)phenyl)amino)-4-oxo-4,5-dihydro-1H-pyrazolo[4,3-c]pyridin-1-yl)tetrahydro-2H-pyran-2-carboxylate]: 0.73 nM and 0.16 nM.
For the compound `COC(=O)N1CCC(CC#N)(n2nc(Nc3ccnc(F)c3)c3c(=O)[nH]ccc32)CC1` [Example 13-2, methyl 4-(cyanomethyl)-4-(3-(2-fluoropyridin-4-ylamino)-4-oxo-4,5-dihydropyrazolo[4,3-c]pyridin-1-yl)piperidine-1-carboxylate], the IC50 was determined as 5.54 nM in assay [1] and 0.64 nM in assay [2].
Take `CC(C)(C)OC(=O)[C@@H]1CC[C@@](CC#N)(n2nc(Nc3ccc(C(O)C(F)(F)F)cc3)c3c(=O)[nH]ccc32)CO1` (single isomer, unassigned) [Example 5-168, (2S,5S)-tert-butyl 5-(cyanomethyl)-5-(4-oxo-3-((4-((S or R)-2,2,2-trifluoro-1-hydroxyethyl)phenyl)amino)-4,5-dihydro-1H-pyrazolo [4,3-c]pyridin-1-yl)tetrahydro-2H-pyran-2-carboxylate]: the IC50 in assay [1] was found to be 0.51 nM; in assay [2], 0.12 nM.
As for `CO[C@@H]1CCN(C(=O)c2ccc(Nc3nn([C@]4(CC#N)CCCOC4)c4cc[nH]c(=O)c34)cc2C)C1` [Example 5-117, 2-((S)-3-(3-((4-((R)-3-methoxypyrrolidine-1-carbonyl)-3-methylphenyl)amino)-4-oxo-4,5-dihydro-1H-pyrazolo[4,3-c]pyridin-1-yl)tetrahydro-2H-pyran-3-yl)acetonitrile], the results for the IC50 in assay [1] and in assay [2] were 1.36 nM and 0.45 nM, respectively.
For `CCOC(=O)C(C)(C)C(O)(c1ccc(Nc2nn([C@]3(CC#N)CCCOC3)c3cc[nH]c(=O)c23)cc1)C(F)(F)F` (single isomer, unassigned) [Example 5-112, (S or R)-ethyl 3-(4-((1-((3S)-3-(cyanomethyl)tetrahydro-2H-pyran-3-yl)-4-oxo-4,5-dihydro-1H-pyrazolo[4,3-c]pyridin-3-yl)amino)phenyl)-4,4,4-trifluoro-3-hydroxy-2,2-dimethylbutanoate] the same measures were 2.53 nM and 1.07 nM.
For `CN(C)C(c1ccc(Nc2nn([C@]3(CC#N)CC[C@@H](C(=O)OC(C)(C)C)OC3)c3cc[nH]c(=O)c23)cc1)C(F)(F)F` (single isomer, unassigned) [Example 5-214, (2S,5S)-tert-butyl 5-(cyanomethyl)-5-(3-((4-((R or S)-1-(dimethylamino)-2,2,2-trifluoroethyl)phenyl)amino)-4-oxo-4,5-dihydro-1H-pyrazolo[4,3-c]pyridin-1-yl)tetrahydro-2H-pyran-2-carboxylate] the same measures were 0.32 nM and 0.2 nM.
With `Cc1nc2ccc(Nc3nn([C@]4(CC#N)CC[C@@H](C(=O)OC(C)(C)C)OC4)c4cc[nH]c(=O)c34)cc2s1` [Example 21-1, (2S,5S)-tert-butyl 5-(cyanomethyl)-5-(3-((2-methylbenzo[d]thiazol-6-yl)amino)-4-oxo-4,5-dihydro-1H-pyrazolo[4,3-c]pyridin-1-yl)tetrahydro-2H-pyran-2-carboxylate], the IC50 in assay [1] was found to be 0.73 nM; in assay [2] it was 0.08 nM.
On to `N#CC[C@@]1(n2nc(Nc3ccc4c(c3)CN(C3CCN(CC(F)(F)F)CC3)S4(=O)=O)c3c(=O)[nH]ccc32)CCOC[C@@H]1F` (single isomer, unassigned) [Example 5-277, 2-((3R,4R or 3S,4S)-4-(3-((1,1-dioxido-2-(1-(2,2,2-trifluoroethyl)piperidin-4-yl)-2,3-dihydrobenzo[d]isothiazol-5-yl)amino)-4-oxo-4,5-dihydro-1H-pyrazolo[4,3-c]pyridin-1-yl)-3-fluorotetrahydro-2H-pyran-4-yl)acetonitrile], for which the IC50 in assay [1] and in assay [2] was 0.05 nM in each case.
Regarding `CN(C)S(=O)(=O)c1ccc(Nc2nn(C3(CC#N)CCN(Cc4ccc(N5CCCC5=O)cc4)CC3)c3cc[nH]c(=O)c23)cc1` [Example 8-14, 4-[(1-{4-(cyanomethyl)-1-[4-(2-oxopyrrolidin-1-yl)benzyl]piperidin-4-yl}-4-oxo-4,5-dihydro-1H-pyrazolo[4,3-c]pyridin-3-yl)amino]-N,N-dimethylbenzenesulfonamide], the IC50 in assay [1] was 2.84 nM; in assay [2], 0.73 nM.
